Test results: patent US11096940B2, “Treatment of hepatocellular carcinoma characterized by hepatitis B virus infection” (Celgene Corporation, priority 2017, dated 2021)
“Also recorded” adds a separate entry of the source.

Legend:
Assay type in all cases: in vivo, human
[1] = test system: subjects with various hematologic or solid malignancies; experiment: Phase 1/2 clinical study Part A, dose escalation (MTD determination); details: oral
Description: The study was designed as a Phase 1/2 trial consisting of two parts: dose escalation (Part A) and dose expansion (Part B).
Part A was an open-label, dose-escalating study of subjects with various hematologic or solid malignancies. The primary objectives were to determine the maximum tolerated dose (MTD) and the preliminary PK of Compound 1. The MTD of Compound 1 was determined to be 45 mg/day, and the nontolerated dose (NTD) was determined to be 60 mg/day. The PK and PD data supported once daily dosing with Compound 1.

subjects with HCC = experiment: Phase 1/2 clinical study Part B, dose expansion: efficacy (RECIST response, OS, PFS) in HCC subjects
Text: Part B, the preliminary efficacy-seeking phase, was an open-label, dose-expansion study, which involved subjects with HCC.
(§1) Subjects received continuous daily dosing of Compound 1 in 28-day cycles (FIG. 1). Therapy was discontinued if there was evidence of disease progression, but subjects continued to receive Compound 1 as long as the investigator considered that the subjects derived benefit from treatment. Therapy was discontinued if there was unacceptable toxicity or if the subject decided to withdraw from the study. Subjects were contacted 28 days after the last dose of study drug to assess the status of adverse events (AEs) and to determine whether any new events or death had occurred. In addition to those subjects who had died on study, approximately 28 subjects were consented for follow-up every 2 months (±1 week) after completing the treatment phase in order to determine their date of death and complete an overall survival analysis.
Accordingly to the original protocol of Part B, 25 HCC patients started treatment of Compound 1 at 45 mg/day. After the protocol Amendment 9, 28 new HCC subjects in an additional cohort were started at 30 mg/day. The appropriateness of the 30 mg/day dose was supported by the PK and PD data from Part A. Compound 1 was administered orally, in an uninterrupted once daily schedule with no rest period between each 28-day cycle. Subjects continued to receive Compound 1 for as long as they derived benefit from treatment as judged by the investigator.
All efficacy analyses were based on both the TP and EE Population. Subjects were evaluated for efficacy during Cycles 2, 4, 6, and every 3 months after Cycle 6. The primary efficacy variable was response rate. Efficacy endpoints for HCC matured once all enrolled subjects had withdrawn from the study.
Tumor response for HCC was based on investigator's overall evaluation with RECIST. Response rate was determined by a best overall response of either CR or PR. Disease control rate (DCR) included CR, PR, and SD.
OS was defined as the time from first dose to death. All deaths, regardless of the cause of death, were included. Subjects who had not died were censored at the last contact date when the subject was known to be alive or the clinical cut-off date, whichever was earlier.
Median of OS times were calculated using the Kaplan-Meier method and the corresponding 95% CIs were presented.

[2] = PK analysis: plasma concentration in HCC patients by HBV status; details: after oral Compound 1, first treatment cycle; FIGS. 3A, 3B
Description: The PK profiles of Compound 1 and its metabolite M1 were determined from serial blood and urine collections during the first treatment cycle. Plasma and urine Compound 1 and M1 were measured using validated chiral liquid chromatography-mass spectrometry methods. The lower limit of quantification (LLOQ) in plasma was 1.00 or 2.00 ng/mL for Compound 1 and 10.0 ng/mL for M1. The LLOQ in urine was 5.00 ng/mL for Compound 1 and 20 ng/mL for M1. […]

alpha-fetoprotein (AFP) = experiment: Assessment of AFP in HCC patients; details: two HBV positive HCC patients with PR (FIG. 10)
Description: For the HCC subjects, baseline and change from baseline in AFP and HBV viral load (HBsAg positive subjects only) were summarized with descriptive statistics. In addition, a Wilcoxon's signed rank test was conducted to analyze change from baseline in AFP at selected scheduled visits. The p-values of such tests were provided. Change from baseline in HBV viral load was analyzed similarly. The percentage of subjects with a >50% decline from baseline in AFP was summarized for the TP.

[3] = Phase 1/2 clinical study Part B: safety and tolerability in HCC subjects; details: subjects with HCC
Text: The primary objectives for Part B were (a) to determine the safety and tolerability of Compound 1 when administered orally and (b) to determine the preliminary PK of Compound 1 following both single and multiple oral dosing of Compound 1.
as §1

Structure (SMILES): CO[C@H]1CC[C@H](N2C(=O)CNc3ncc(-c4ccc(C(C)(C)O)nc4)nc32)CC1 [Compound 1, 7-(6-(2-hydroxypropan-2-yl)pyridin-3-yl)-1-((trans)-4-methoxycyclohexyl)-3,4-dihydropyrazino[2,3-b]pyrazin-2(1H)-one]
- maximum tolerated dose (MTD) [1]: 45 mg/day
- nontolerated dose (NTD) [1]: 60 mg/day
- DCR (subjects with HCC; EE Population): 68.3%
- ORR (subjects with HCC; EE Population): 7.3%
- rate of tumor regression relative to pretreatment (subjects with HCC; EE Population): 56.1%
- median OS (subjects with HCC; HBV infected HCC patients): 12.07 months
- ORR (subjects with HCC; HBV negative subgroups): 0%
- disease control rate (DCR) (subjects with HCC; HBV negative subjects): 43.9%
- median OS (subjects with HCC; HBV negative subjects): 22.4 weeks
- median PFS (subjects with HCC; HBV negative subjects): 14.4 weeks
- target tumor shrinkage rate (subjects with HCC; HBV negative subjects): 39.0%
- ORR (subjects with HCC; HBV positive subjects): 25%
- disease control rate (DCR) (subjects with HCC; HBV positive subjects): 91.7%
- median OS (subjects with HCC; HBV positive subjects): 52.4 weeks
- median PFS (subjects with HCC; HBV positive subjects): 14.8 weeks
- target tumor shrinkage rate (subjects with HCC; HBV positive subjects): 66.7%
- complete response (CR) (subjects with HCC; HCC TP): No subject experienced a CR
- overall response rate (ORR) (subjects with HCC; HCC TP): 5.7%
- subjects with best response of SD (subjects with HCC; HCC TP): 49.1%
- number of subjects with >30% regression of target tumor lesion (subjects with HCC; HCC cohort, RECIST 1.1 (FIG. 7)): Five
- median OS (subjects with HCC; HCC cohort, all patients (FIG. 5A)): 6.9 months
- median PFS (subjects with HCC; HCC cohort, all patients (FIG. 6A)): 16 weeks
- number of subjects achieving PR (subjects with HCC; HCC cohort, all HBV positive): 3 subjects
- median OS (subjects with HCC; TP): 30.0 weeks
- median PFS (subjects with HCC; TP): 3.7 months
- disease control rate (DCR) (subjects with HCC; all subjects (HCC TP)): 54.7%
- rate of target tumor shrinkage (target lesion regression relative to pretreatment) (subjects with HCC; all subjects (HCC TP)): 45.3%
- median OS (subjects with HCC; non-HBV infected HCC patients): 5.16 months
- median duration of response (DOR) (subjects with HCC; the 3 subjects who reached PR): 124.0 days
- median duration of SD (subjects with HCC; the 26 subjects with best response of SD): 112.0 days
- radiographic response at first on-treatment restaging compared to baseline (subjects with HCC; two HBV infected HCC patients, Patient A and Patient B (FIG. 9)): regression of intrathoracic metastases; also recorded: intrahepatic tumor regression
- plasma exposure in HBV infected HCC patients (n=12) versus non-HBV infected HCC patients (n=39) [2]: comparable to the exposure observed in non-HBV infected HCC patients
- AFP on treatment compared to baseline (alpha-fetoprotein (AFP)): early clinically significant, marked reduction of AFP
- tolerability [3]: well tolerated
